# According to ChEMBL document CHEMBL1201862, “PubChem BioAssay data set” (2004):
#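 Protocol summary: plate cells (96-well), add compound at 5 concentrations, incubate 48 h, interpolate endpoints linearly. At the GI50, growth is halved.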 Calls of active or inactive are those of the source. Cut-off read from the data, not from the text of the source: active = GI50 up to about 1.1 µM and inactive = higher. Non-standard residues stand in square brackets, D forms with d. Residues, ends and D or L forms follow the SMILES beside them. ξ: configuration not given here. Pen = CC(C)(S)[C@H](N)C(=O)O; ξL = CC(C)CC(N)C(=O)O
# What was measured:
# Assay in all cases: NCI anticancer screen, dose series, 48 h
# K562 = tested on: K562
# SNB-19 = tested on: SNB-19
# SK-OV-3 = tested on: SK-OV-3
# SF-539 = tested on: SF-539
# LOX IMVI = tested on: LOX IMVI
# MCF7 = tested on: MCF7
# SK-MEL-28 = tested on: SK-MEL-28
# DLD-1 = tested on: DLD-1
# DMS-114 = tested on: DMS-114
# NCI-H226 = tested on: NCI-H226
# EKVX = tested on: EKVX
# OVCAR-8 = tested on: OVCAR-8
# SF-268 = tested on: SF-268
# A498 = tested on: A498
# COLO 205 = tested on: COLO 205
# SK-MEL-5 = tested on: SK-MEL-5
# HOP-92 = tested on: HOP-92
Structure (SMILES),GI50 (K562),GI50 (SNB-19),GI50 (SK-OV-3),GI50 (SF-539),GI50 (LOX IMVI),GI50 (MCF7),GI50 (SK-MEL-28),GI50 (DLD-1),GI50 (DMS-114),GI50 (NCI-H226),GI50 (EKVX),GI50 (OVCAR-8),GI50 (SF-268),GI50 (A498),GI50 (COLO 205),GI50 (SK-MEL-5),GI50 (HOP-92)
CN(C)CCNC(=O)c1cc(Cl)cc2cc3ccccc3nc12,1.01 µM (active),1.33 µM (inactive),2.21 µM (inactive),1.62 µM (inactive),0.597 µM (active),0.757 µM (active),1.76 µM (inactive),0.652 µM (active),0.792 µM (active),0.843 µM (active),1.43 µM (inactive),0.542 µM (active),1.22 µM (inactive),0.179 µM (active),0.433 µM (active),1.31 µM (inactive),–
CCOC(=O)/C=C/c1c[nH]c(C(=O)OCC)c1,51.5 µM (inactive),> 100 µM (inactive),> 100 µM (inactive),> 100 µM (inactive),> 100 µM (inactive),> 100 µM (inactive),> 100 µM (inactive),> 100 µM (inactive),> 100 µM (inactive),> 100 µM (inactive),> 85.7 µM (inactive),> 100 µM (inactive),> 100 µM (inactive),> 100 µM (inactive),> 100 µM (inactive),> 100 µM (inactive),> 100 µM (inactive)
C=C1C[C@@H](O)C[C@@]2(C)C[C@@H]3OC(=O)C(=C)[C@@H]3C[C@H]12,4.19 µM (inactive),5.21 µM (inactive),20.7 µM (inactive),9.68 µM (inactive),4.46 µM (inactive),3.78 µM (inactive),4.82 µM (inactive),3.85 µM (inactive),8.73 µM (inactive),14 µM (inactive),–,16 µM (inactive),5.46 µM (inactive),12.4 µM (inactive),1.61 µM (inactive),3.51 µM (inactive),13.1 µM (inactive)
COC(=O)C1C(O)C(C)C(O)C(C)(O)/C=C\C=C(C)C(=O)Nc2c(C)c(OC(C)=O)c3c(c2O)C(=O)C(C)=C2OCOC(=C23)C(C)=CC(C)(O)C(O)C(C)C1OC(C)=O (stereo not given),37.4 µM (inactive),89.9 µM (inactive),> 95.1 µM (inactive),41.2 µM (inactive),20.4 µM (inactive),18 µM (inactive),40.1 µM (inactive),24.7 µM (inactive),16.1 µM (inactive),63.5 µM (inactive),34.1 µM (inactive),49.3 µM (inactive),46.6 µM (inactive),49.8 µM (inactive),18.6 µM (inactive),30.3 µM (inactive),2.52 µM (inactive)
CCOC(=O)CNC(=O)NC12CC3CC(CC(C3)C1)C2,226 µM (inactive),270 µM (inactive),> 418 µM (inactive),203 µM (inactive),237 µM (inactive),115 µM (inactive),179 µM (inactive),65.8 µM (inactive),179 µM (inactive),203 µM (inactive),191 µM (inactive),490 µM (inactive),284 µM (inactive),147 µM (inactive),137 µM (inactive),131 µM (inactive),22.1 µM (inactive)
c1ccc2c(c1)SCCc1cn[nH]c1-2,> 100 µM (inactive),> 100 µM (inactive),> 100 µM (inactive),> 100 µM (inactive),> 100 µM (inactive),> 100 µM (inactive),> 100 µM (inactive),> 100 µM (inactive),> 100 µM (inactive),24.7 µM (inactive),> 100 µM (inactive),> 100 µM (inactive),> 100 µM (inactive),> 100 µM (inactive),> 100 µM (inactive),> 100 µM (inactive),> 73.5 µM (inactive)
CC(=O)OCC1OC(Nc2ncc(-c3ccc(C)cc3)s2)C(OC(C)=O)C(OC(C)=O)C1OC(C)=O (stereo not given),34.2 µM (inactive),> 100 µM (inactive),68.4 µM (inactive),43.8 µM (inactive),26.9 µM (inactive),13.3 µM (inactive),39.1 µM (inactive),54.1 µM (inactive),35.6 µM (inactive),25.2 µM (inactive),54 µM (inactive),39.7 µM (inactive),45.5 µM (inactive),48.2 µM (inactive),40.5 µM (inactive),33.3 µM (inactive),42.6 µM (inactive)
CN(C)CCOc1cc2c(c3ccccc13)-c1ccccc1C2=O,1.74 µM (inactive),2.7 µM (inactive),7.53 µM (inactive),1.76 µM (inactive),1.05 µM (active),1.1 µM (active),1.8 µM (inactive),1.15 µM (inactive),1.09 µM (active),1.95 µM (inactive),4.91 µM (inactive),0.895 µM (active),1.45 µM (inactive),6.68 µM (inactive),1.92 µM (inactive),1.58 µM (inactive),0.933 µM (active)
Cc1cc(O)c2c(c1O)C(=O)C13C(=C(O)C4C(O)C1C1C(O)C3C(O)=C3C(=O)c5c(O)cc(C)c(O)c5C(=O)C341)C2=O (stereo not given),0.0322 µM (active),0.668 µM (active),0.0378 µM (active),0.134 µM (active),0.106 µM (active),0.0577 µM (active),0.106 µM (active),0.0455 µM (active),0.0146 µM (active),0.199 µM (active),0.0845 µM (active),0.0615 µM (active),0.0542 µM (active),0.0362 µM (active),0.0276 µM (active),0.15 µM (active),0.24 µM (active)
C[S+](C)CC1OC(n2cnc3c(N)ncnc32)C(O)C1O (stereo not given),> 225 µM (inactive),> 225 µM (inactive),> 225 µM (inactive),> 225 µM (inactive),> 225 µM (inactive),> 225 µM (inactive),> 225 µM (inactive),> 225 µM (inactive),> 225 µM (inactive),> 225 µM (inactive),> 225 µM (inactive),> 225 µM (inactive),> 225 µM (inactive),> 225 µM (inactive),> 225 µM (inactive),> 225 µM (inactive),> 225 µM (inactive)
CSCC[C@H](NC(=O)C(CC(C)C)NC(=O)[C@H](Cc1c[nH]cn1)NC(=O)CNC(=O)[C@@H](NC(=O)[C@@H](C)NC(=O)[C@H](Cc1c[nH]c2ccccc12)NC(=O)[C@H](CCC(N)=O)NC(=O)[C@@H](N)CC(N)=O)C(C)(C)SC)C(N)=O (stereo not given in full) (H-NQW[dA][Pen](Me)GH[ξL]M-NH2),> 100 µM (inactive),> 100 µM (inactive),> 100 µM (inactive),> 100 µM (inactive),> 100 µM (inactive),> 100 µM (inactive),> 100 µM (inactive),> 100 µM (inactive),> 100 µM (inactive),> 100 µM (inactive),> 100 µM (inactive),> 100 µM (inactive),> 100 µM (inactive),> 100 µM (inactive),> 100 µM (inactive),> 100 µM (inactive),> 100 µM (inactive)
